Measurements: US11707440B2 (priority 2017, dated 2023)

How the values were obtained:
[1] = test system: subjects with MDD at imminent risk for suicide; assay: SIBAT clinical global judgment of suicide risk, […]2001; type: in vivo, human; conditions: Baseline(DB), predose Day 1; ITT analysis set
Description: The clinical global judgment of suicide risk (Module 8) summarizes clinician overall judgment of suicide risk as derived from information gathered from the full SIBAT tool. It operates like numerous other CGI-severity scales that have been used in other psychiatric studies. Change in the clinical global judgment of suicide risk is designed to directly identify clinical meaningful changes in suicidal ideation and to permit classification of suicide risk.
The analysis of the change in SIBAT score was based on an ANCOVA model on ranks of change in SIBAT with treatment, antidepressant therapy, and analysis center as factors, and baseline value (unranked) as a covariate. There was a significant difference (two-sided […]) between the two treatment groups when comparing the mean rank of change from baseline at Day 1: 4-hours postdose in favor of esketamine 84 mg See, Table 58. See, FIG. 39. […] This difference was not evident at the Day 25 DB endpoint. See, FIG. 40, which is based on LOCF data and analyzed using Cochran-Mantel-Haenszel test controlling for analysis center and antidepressant therapy.

[2] = test system: subjects with MDD at imminent risk for suicide; assay: MADRS suicide item, […]2001; type: in vivo, human; conditions: 84 mg, ITT Analysis Set
Description: • a. Changes from baseline to Day 2 and Day 25 for the MADRS total score • b. Changes from baseline to Day 1 4-hours postdose, Day 2 and Day 25 for the MADRS Suicide Item • c. Changes from baseline to Day 1 4-hours postdose, Day 2, and Day 25 for the clinical global judgment of suicide risk from the Suicide Ideation and Behavior Assessment Tool (SIBAT) • d. Sustained response (Onset of Clinical Response) defined as at least 50% reduction from baseline in MADRS total score with onset on Day 1 that is maintained through the end of the double-blind phase (Day 25) • e. Changes from baseline to Day 1 4-hours postdose, Day 2, and Day 25 for the Beck Scale for Suicidal Ideation (BSS) • f. Changes from baseline to Day 1 4-hours postdose and Day 25 for the Beck Hopelessness Scale
Results of the change from baseline over time for the suicide item from the MADRS assessment can be found in Attachment 1.

[3] = test system: subjects with MDD at imminent risk for suicide; type: in vivo, human; conditions: esketamine 84 mg
Experimental: Transient blood pressure increases peaked for the esketamine group at approximately 40 minutes post dose with the maximum mean increases (across all dosing days) in systolic BP being 8.7 in the placebo group and 16.7 in the esketamine 84 mg group. The maximum mean increases (across all dosing days) in diastolic BP were 7.6 in the placebo group and 11.9 in the esketamine 84 mg group. […] See, FIGS. 46 and 47.

[4] = test system: subjects with MDD at imminent risk for suicide; type: in vivo, human; conditions: esketamine 84 mg; safety analysis set
Experimental: Of the 68 subjects in the all randomized analysis set, 19 (27.9%) subjects discontinued from the double-blind phase. More subjects in the esketamine 84 mg group discontinued due to adverse events (5 subjects in the esketamine 84 mg group versus 1 subject in the placebo group) whereas more subjects in the placebo group discontinued due to lack of efficacy (4 subjects in the placebo group versus 1 subject in the esketamine 84 mg group).
More subjects in the esketamine 84 mg group than in the placebo group had all 8 dosing sessions (74.3% vs. 64.5%). Five subjects reduced their dose of esketamine from 84 mg to 56 mg. Of these, 3 reduced their dose due to an adverse event and 2 had their dose reduced in error and were considered major protocol deviations.

[5] = test system: patients with treatment-resistant depression (TRD); assay: Response, remission and relapse rates (MADRS), Example 7; type: in vivo, human; conditions: Period 2 endpoint
Description: A similar trend for remission (defined as MADRS total score≤10) was observed across groups. […] Response and remission rates at the end of the open-label and follow-up phases are presented by type of treatment in the double-blind and open-label phases in Table 161.

[6] = test system: patients with treatment-resistant depression (TRD); assay: BPRS positive symptom subscale, Example 7; design: species or system human; conditions: in vivo
Experimental: Adverse events were monitored throughout the study. Other safety assessments (i.e., laboratory tests, vital signs, physical examination) were performed at pre-specified time points. Vital signs, the Clinician Administered Dissociative States Scale (CADSS; Bremner, “Measurement of dissociative states with the clinician-administered dissociative states scale (CADSS)”, J. Traumatic Stress, 1998, 11(1):125-136), and the 4-item positive symptom subscale from the Brief Psychiatric Rating Scale (BPRS; Overall, “The Brief Psychiatric Rating Scale. Psychological Reports”, 1962, 10:799-812) were assessed pre-dose, at 40 minutes, and 2 hours post-dose.

## CN[C@]1(c2ccccc2Cl)CCCCC1=O [Esketamine 84 mg]
[1]
  SIBAT Clinical Global Judgment of Suicide Risk, Median (Range): 6.0 (5; 6)

## CN[C@]1(c2ccccc2Cl)CCCCC1=O [esketamine, (S)-2-(2-chlorophenyl)-2-(methylamino)cyclohexanone]
[2]; Day 1(DB): 4H LOCF
  MADRS Suicide Item (Suicidal Thoughts), Change from Baseline, Med: −3.0
[2]; Day 1(DB): 4H
  MADRS Suicide Item (Suicidal Thoughts), Change from Baseline, Med: −3.0
[2]; Day 2(DB) LOCF
  MADRS Suicide Item (Suicidal Thoughts), Change from Baseline, Med: −3.0
[2]; Day 2(DB)
  MADRS Suicide Item (Suicidal Thoughts), Change from Baseline, Med: −3.0
[2]; Day 3(DB) LOCF
  MADRS Suicide Item (Suicidal Thoughts), Change from Baseline, Med: −4.0
[2]; Day 3(DB)
  MADRS Suicide Item (Suicidal Thoughts), Change from Baseline, Med: −4.0
[2]; Day 4(DB) LOCF
  MADRS Suicide Item (Suicidal Thoughts), Change from Baseline, Med: −4.0
[2]; Day 4(DB)
  MADRS Suicide Item (Suicidal Thoughts), Change from Baseline, Med: −4.0
[2]; Day 5(DB) LOCF
  MADRS Suicide Item (Suicidal Thoughts), Change from Baseline, Med: −4.0
[2]; Day 5(DB)
  MADRS Suicide Item (Suicidal Thoughts), Change from Baseline, Med: −4.0
[2]; Day 8(DB) LOCF
  MADRS Suicide Item (Suicidal Thoughts), Change from Baseline, Med: −4.0
[2]; Day 8(DB)
  MADRS Suicide Item (Suicidal Thoughts), Change from Baseline, Med: −4.0
[2]; Day 11(DB) LOCF
  MADRS Suicide Item (Suicidal Thoughts), Change from Baseline, Med: −4.0
[2]; Day 11(DB)
  MADRS Suicide Item (Suicidal Thoughts), Change from Baseline, Med: −4.0
[2]; Day 15(DB) LOCF
  MADRS Suicide Item (Suicidal Thoughts), Change from Baseline, Med: −4.0
[2]; Day 15(DB)
  MADRS Suicide Item (Suicidal Thoughts), Change from Baseline, Med: −4.0
[2]; Day 18(DB) LOCF
  MADRS Suicide Item (Suicidal Thoughts), Change from Baseline, Med: −4.0
[2]; Day 18(DB)
  MADRS Suicide Item (Suicidal Thoughts), Change from Baseline, Med: −4.0
[2]; Day 22(DB) LOCF
  MADRS Suicide Item (Suicidal Thoughts), Change from Baseline, Med: −4.0
[2]; Day 22(DB)
  MADRS Suicide Item (Suicidal Thoughts), Change from Baseline, Med: −4.0
[2]; Day 25(DB): 4H
  MADRS Suicide Item (Suicidal Thoughts), Change from Baseline, Med: −4.5
[2]; Day 25(DB): Predose LOCF
  MADRS Suicide Item (Suicidal Thoughts), Change from Baseline, Med: −4.0
[2]; Day 25(DB): Predose
  MADRS Suicide Item (Suicidal Thoughts), Change from Baseline, Med: −4.5
[2]; Day 32(FU) LOCF
  MADRS Suicide Item (Suicidal Thoughts), Change from Baseline, Med: −4.0
[2]; Day 32(FU)
  MADRS Suicide Item (Suicidal Thoughts), Change from Baseline, Med: −4.0
[2]; Day 39(FU) LOCF
  MADRS Suicide Item (Suicidal Thoughts), Change from Baseline, Med: −5.0
[2]; Day 39(FU)
  MADRS Suicide Item (Suicidal Thoughts), Change from Baseline, Med: −5.0
[2]; Day 46(FU) LOCF
  MADRS Suicide Item (Suicidal Thoughts), Change from Baseline, Med: −4.0
[2]; Day 46(FU)
  MADRS Suicide Item (Suicidal Thoughts), Change from Baseline, Med: −4.0
[2]; Day 53(FU) LOCF
  MADRS Suicide Item (Suicidal Thoughts), Change from Baseline, Med: −4.0
[2]; Day 53(FU)
  MADRS Suicide Item (Suicidal Thoughts), Change from Baseline, Med: −5.0
[2]; Day 67(FU) LOCF
  MADRS Suicide Item (Suicidal Thoughts), Change from Baseline, Med: −4.0
[2]; Day 67(FU)
  MADRS Suicide Item (Suicidal Thoughts), Change from Baseline, Med: −4.0
[2]; Day 81(FU)
  MADRS Suicide Item (Suicidal Thoughts), Change from Baseline, Med: −5.0
[2]; End Point(DB)
  MADRS Suicide Item (Suicidal Thoughts), Change from Baseline, Med: −4.0
[2]; End Point(FU)
  MADRS Suicide Item (Suicidal Thoughts), Change from Baseline, Med: −5.0
[3]
  Maximum mean increase in diastolic BP (across all dosing days): 11.9
  Maximum mean increase in systolic BP (across all dosing days): 16.7
  Time of return of blood pressure to normal range: ≤ 2 hours post dose
[4]
  Dose decreased during double-blind: No: 29 (82.9%)
  Dose decreased during double-blind: Yes: 6 (17.1%)
[5]; 56 mg
  Proportion of responders (≥50% improvement from baseline in MADRS total score): 36.4%
[5]; 84 mg
  Proportion of responders (≥50% improvement from baseline in MADRS total score): 50.0%
[6]
  Symptoms suggestive of psychosis (BPRS-positive assessment): No participant manifested symptoms suggestive of psychosis
